Values of other authors, collected in patent publication US20110245202A1, “PHARMACEUTICAL COMPOSITION FOR THE TREATMENT OF RHINITIS” (priority 2003, published 2011).

Settings: fraction of the action of naturally occurring (1R,2S)-ephedrine

## CN[C@H](C)[C@@H](O)c1ccccc1 [(1S,2R)-ephedrine]
  pharmacological action relative to the natural form (−)-ephedrine: approximately one third
